The values below come from patent US11760752B2, “Carboxylic acid, acyl sulfonamide and acyl sulfamide-derivatized bicyclic aza-heteroaromatics as selective Mcl-1 inhibitors and as dual Mcl-1/Bcl-2 inhibitors” (University of Maryland, Baltimore, priority 2019, dated 2023).

Where two headings read alike, the source gives them in different places.

Experiment [1] addresses MCL-1 (Homo sapiens (Human), UniProt Q07820). The experiment in a line: Fluorescence polarization competition assay (FPCA), displacement of FITC-Bak from MCL-1. It counts as binding. A general note: In fluorescence polarisation assays a small probe gives low polarisation when free and higher when bound to something large.
The target of experiment [2] is BCL-2 (Homo sapiens (Human), UniProt P10415). As to the kind of experiment: Fluorescence polarization competition assay (FPCA), displacement of FITC-Bak from BCL-2. Format: binding. Here is the method:
(§1) These values were determined from a fluorescence polarization competition assay involving a fluorescently labeled peptide (BAK) bound to the desired Bcl-2 anti-apoptotic protein. […] These inhibition constants are the concentrations at which the indazole derivatives can displace 50% of BAK from the indicated Bcl-2 anti-apoptotic proteins.
(§2) The concentrated peptide stocks were prepared in DMSO and the concentration of the peptide was determined in water at pH 8.0 using the extinction coefficient for amide-linked FITC of λ494=68,000 cm^−1M^−1.
(§3) The fluorescence polarization assays were performed in 96 well polypropylene F-bottom black microplates (Greiner Bio-One) with a final volume of 100 μL.
(§4) The fluorescence polarization competition assays were setup using a Biomek FXP Automated Liquid Handling System. […] The IC50 values were then converted to Ki values using an equation derived by Nikolovska-Coleska et al. All inhibitors were tested in triplicate.

In experiment [3] the target is T1, BCL-XL (Homo sapiens (Human), UniProt Q07817). The experiment in a line: Fluorescence polarization competition assay (FPCA), displacement of FITC-Bak from BCL-XL. Format: binding. Here is the method:
as §1, §2, §3, §4
Target sequence in this assay (Q07817 1-212): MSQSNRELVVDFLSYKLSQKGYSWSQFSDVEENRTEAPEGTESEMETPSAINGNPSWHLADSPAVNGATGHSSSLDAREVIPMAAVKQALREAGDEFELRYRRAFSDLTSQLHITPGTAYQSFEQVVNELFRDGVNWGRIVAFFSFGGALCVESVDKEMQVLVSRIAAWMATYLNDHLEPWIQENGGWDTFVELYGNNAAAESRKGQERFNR

Experiment [4] addresses T1, BCL-XL. As to conditions: relative to BCL-2; cited from earlier work.
Target sequence in this assay (Q07817 whole entry, species assumed): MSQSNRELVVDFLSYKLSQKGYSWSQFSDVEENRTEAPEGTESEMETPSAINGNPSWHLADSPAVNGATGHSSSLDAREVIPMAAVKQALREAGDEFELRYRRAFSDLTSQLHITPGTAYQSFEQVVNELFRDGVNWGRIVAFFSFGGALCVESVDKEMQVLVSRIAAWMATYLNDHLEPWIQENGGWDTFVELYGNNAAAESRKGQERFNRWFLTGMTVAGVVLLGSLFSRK
The mark [5] stands for this setting: Table 3, FITC-Bak peptide displacement, read-out: MCL-1 Affinity Ki.
Where [6] appears, read: Table 3, FITC-Bak peptide displacement, read-out: BCL-2 Affinity Ki.
Setting [7] is: Table 3, FITC-Bak peptide displacement, read-out: BCL-XL Affinity Ki.
The mark [8] stands for this setting: Table 5, heterocyclic core SAR, read-out: MCL-1 Ki.
Setting [9] is: Table 8, N-1-alkylated isomers, read-out: BCL-2 Ki.

MCL-1, sequence (Q07820 172-327): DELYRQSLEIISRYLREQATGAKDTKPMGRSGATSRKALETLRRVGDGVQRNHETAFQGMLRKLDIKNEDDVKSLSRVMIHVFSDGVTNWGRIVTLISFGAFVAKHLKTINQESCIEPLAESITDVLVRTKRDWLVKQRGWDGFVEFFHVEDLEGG
BCL-2, sequence (P10415 1-211): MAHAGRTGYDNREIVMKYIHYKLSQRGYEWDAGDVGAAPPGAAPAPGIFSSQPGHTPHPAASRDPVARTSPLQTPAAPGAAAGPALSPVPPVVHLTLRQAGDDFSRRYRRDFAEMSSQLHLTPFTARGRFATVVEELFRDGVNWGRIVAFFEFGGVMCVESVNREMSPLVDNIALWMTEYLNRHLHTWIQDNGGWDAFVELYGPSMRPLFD

One may read the Ki as the dissociation constant of the complex between target and ligand, obtained from inhibition or displacement. As for `Cc1cc(Oc2ccc(Cn3nc(C(=O)NS(=O)(=O)c4ccc([N+](=O)[O-])c(NCc5ccco5)c4)c4cc(Cl)ccc43)cc2)cc(C)c1Cl` [CG-1-019], the Ki was determined as 1140 ± 50 nM in experiment [1] (setting [5]), 384 ± 30 nM in experiment [2] (setting [6]) and 325 ± 50 nM in experiment [3] (setting [7]).
Take `Cc1cc(Oc2ccc(Cn3nc(C(=O)NS(=O)(=O)c4ccc(NCc5ccco5)c([N+](=O)[O-])c4)c4cc(Cl)ccc43)cc2)cc(C)c1Cl` [NB-1-089]: the values for the Ki in experiment [1] (setting [5]), in experiment [2] (setting [6]) and in experiment [3] (setting [7]) were 260 ± 10 nM, 266 ± 20 nM and 551 ± 70 nM, respectively.
As to `Cc1cc(Oc2ccc(Cn3nc(C(=O)NS(=O)(=O)c4ccc([N+](=O)[O-])c(N5CCOCC5)c4)c4cc(Cl)ccc43)cc2)cc(C)c1Cl` [CG-1-016], the Ki amounted to 370 ± 20 nM in experiment [1] (setting [5]), 451 ± 40 nM in experiment [2] (setting [6]) and 436 ± 70 nM in experiment [3] (setting [7]).
In the case of `Cc1cc(Oc2ccc(Cn3nc(C(=O)NS(=O)(=O)c4ccc(NCc5cccnc5)c([N+](=O)[O-])c4)c4cc(Cl)ccc43)cc2)cc(C)c1Cl` [NB-1-087], the Ki in experiment [1] (setting [5]) was determined as 520 ± 30 nM; in experiment [2] (read-out: BCL-2 Affinity Ki), 611 ± 200 nM; in experiment [3] (read-out: BCL-XL Affinity Ki), 557 ± 80 nM.
For the compound `Cc1cc(Oc2ccc(Cn3nc4ccc(Cl)cc4c3C(=O)O)cc2)cc(C)c1Cl` [compound 12, 5-chloro-2-(4-(4-chloro-3,5-dimethylphenoxy)benzyl)-2H-indazole-3-carboxylic acid], the inhibitory constant (Ki) in experiment [1] (setting [8]) turned out to be 2360 ± 290 nM; in experiment [1] (read-out: MCL-1 Ki) it was 2360 ± 290 nM; in experiment [2] (read-out: BCL-2 Ki), 1450 ± 75 nM.
Regarding `Cc1cc(Oc2ccc(Cn3nc(C(=O)NS(=O)(=O)c4ccc(NCCN5CCOCC5)c([N+](=O)[O-])c4)c4cc(Cl)ccc43)cc2)cc(C)c1Cl` [NB-1-088], the figures for the Ki in experiment [1] (setting [5]) and in experiment [2] (read-out: BCL-2 Affinity Ki) were 750 ± 60 nM and 738 ± 190 nM, respectively.
On to `Cc1cc(OCCCn2nc3ccc(Cl)cc3c2C(=O)O)cc(C)c1Cl` [compound 10, 5-chloro-2-(3-(4-chloro-3,5-dimethylphenoxy)propyl)-2H-indazole-3-carboxylic acid], for which the Ki in experiment [1] (setting [8]) and in experiment [1] (read-out: MCL-1 Ki) was over 10000 nM each time.
Turning to `Cc1cc(OCCCc2c(C(=O)O)n(C)c3cc(Cl)ccc23)cc(C)c1Cl`, the Ki in experiment [2] (Table 4, FPCA data for control compounds, read-out: BCL-2 Ki) was over 10000 nM; in experiment [3] (Table 4, FPCA data for control compounds, read-out: BCL-XL Ki), 1200 ± 160 nM.
On to `Cc1cc(OCCCn2nc(C(=O)NS(=O)(=O)c3ccc(N4CCOCC4)c([N+](=O)[O-])c3)c3cc(Cl)ccc32)cc(C)c1Cl` [BD-3-183], for which the inhibitory constant (Ki) in experiment [1] (setting [5]) was determined as 920 ± 30 nM; in experiment [2] (setting [6]), 868 ± 130 nM; in experiment [3] (setting [7]) it was 1060 ± 340 nM.
On the same counts, the results for `Cc1cc(OCCCn2nc(C(=O)NS(=O)(=O)c3ccc(NCc4cccnc4)c([N+](=O)[O-])c3)c3cc(Cl)ccc32)cc(C)c1Cl` [BD-3-181] are 840 ± 50 nM, 694 ± 90 nM and 574 ± 110 nM.
As to `Cc1cc(OCCCn2nc(C(=O)O)c3cc(Cl)ccc32)cc(C)c1Cl` [BD-3-173], the Ki in experiment [1] (setting [5]) came out at 5800 ± 360 nM; in experiment [2] (read-out: BCL-2 Affinity Ki), 5790 ± 620 nM.
On to `Cc1cc(Oc2ccc(Cn3nc4cc(Cl)ccc4c3C(=O)O)cc2)cc(C)c1Cl` [compound 49, 6-chloro-2-(4-(4-chloro-3,5-dimethylphenoxy)benzyl)-2H-indazole-3-carboxylic acid], for which the Ki in experiment [1] (setting [8]) and in experiment [1] (read-out: MCL-1 Ki) was 1760 ± 550 nM in each case.
On to `Cc1cc(Oc2ccc(Cn3nc(C(=O)NS(=O)(=O)c4ccc(Cl)cc4)c4cc(Cl)ccc43)cc2)cc(C)c1Cl` [NB-1-084], for which the Ki in experiment [1] (setting [5]) was 280 ± 10 nM; in experiment [2] (setting [6]), 1090 ± 450 nM; in experiment [3] (setting [7]), 840 ± 228 nM.
Consider `Cc1cc(OCCCn2nc(C(=O)NS(=O)(=O)c3ccc(NCc4ccco4)c([N+](=O)[O-])c3)c3cc(Cl)ccc32)cc(C)c1Cl` [BD-3-180], for which the Ki worked out at 480 ± 30 nM in experiment [1] (setting [5]), 572 ± 50 nM in experiment [2] (setting [6]) and 597 ± 180 nM in experiment [3] (setting [7]).
Consider `Cc1cc(Oc2ccc(Cn3nc(C(=O)NS(=O)(=O)c4ccc(NCc5cccnc5)c([N+](=O)[O-])c4)c4cc(Cl)ccc43)cc2)cc(C)c1Cl` [compound 52, 5-chloro-1-(4-(4-chloro-3,5-dimethylphenoxy)benzyl)-N-((3-nitro-4-((pyridin-3-ylmethyl)amino)phenyl)sulfonyl)-1H-indazole-3-carboxamide], for which the Ki is over 10000 nM in experiment [1] and 690 ± 110 nM in experiment [2] (setting [9]). The “BCL-2 binding affinity (in words)” value in experiment [2] was “within the nanomolar range”. Moreover, in experiment [3], the “BCL-XL affinity (in words)” value was “no affinity”.
With `CC1(C)CCC(CN2CCN(c3ccc(C(=O)NS(=O)(=O)c4ccc(NCC5CCOCC5)c([N+](=O)[O-])c4)c(Oc4cnc5[nH]ccc5c4)c3)CC2)=C(c2ccc(Cl)cc2)C1` [venetoclax, Venetoclax], the “BCL-XL affinity, fold lower than BCL-2” value in experiment [4] was “more than 100 fold”.
In the case of `Cc1cc(OCCCn2nc(C(=O)NS(=O)(=O)c3ccc(NCC4CCN(C)CC4)c([N+](=O)[O-])c3)c3cc(Cl)ccc32)cc(C)c1Cl` [BD-3-190], the Ki in experiment [2] (read-out: BCL-2 Affinity Ki) came to 8930 ± 290 nM.
As for `Cc1cc(Oc2ccc(Cn3nc(C(=O)NS(=O)(=O)c4ccc([N+](=O)[O-])c(NCc5cccnc5)c4)c4cc(Cl)ccc43)cc2)cc(C)c1Cl` [CG-1-018], the figures for the Ki in experiment [1] (setting [5]), in experiment [2] (setting [6]) and in experiment [3] (setting [7]) were 480 ± 30 nM, 384 ± 30 nM and 436 ± 70 nM, respectively.
For `Cc1cc(Oc2ccc(Cn3nc(C(=O)NS(=O)(=O)c4ccc(N5CCOCC5)c([N+](=O)[O-])c4)c4cc(Cl)ccc43)cc2)cc(C)c1Cl` [NB-1-086], the Ki in experiment [1] (setting [5]) was 320 ± 10 nM; in experiment [2] (read-out: BCL-2 Affinity Ki) it was 569 ± 40 nM; in experiment [3] (read-out: BCL-XL Affinity Ki), 840 ± 228 nM.
As to `Cc1cc(Oc2ccc(Cn3nc(C(=O)NS(=O)(=O)c4ccc(N5CCOCC5)c([N+](=O)[O-])c4)c4cc(Cl)ccc43)cc2)cc(C)c1Cl` [compound 51, 5-chloro-1-(4-(4-chloro-3,5-dimethylphenoxy)benzyl)-N-((4-morpholino-3-nitrophenyl)sulfonyl)-1H-indazole-3-carboxamide], the Ki in experiment [1] was 2220 ± 200 nM; in experiment [2] (setting [9]) it was 620 ± 120 nM. In addition, the “BCL-2 binding affinity (in words)” value in experiment [2] was “within the nanomolar range”. Besides, the “BCL-XL affinity (in words)” value in experiment [3] is reported as “no affinity”.
Turning to `Cc1cc(OCCn2nc3ccc(Cl)cc3c2C(=O)O)cc(C)c1Cl` [compound 11, 5-chloro-2-(2-(4-chloro-3,5-dimethylphenoxy)ethyl)-2H-indazole-3-carboxylic acid], the Ki in experiment [1] (setting [8]) and in experiment [1] (read-out: MCL-1 Ki) was over 10000 nM in each case.
With `Cc1cc(Oc2ccc(Cn3nc(C(=O)O)c4cc(Cl)ccc43)cc2)cc(C)c1Cl` [NB-1-070], the Ki worked out at 910 ± 50 nM in experiment [1] (setting [5]), 1040 ± 190 nM in experiment [2] (read-out: BCL-2 Affinity Ki) and 2010 ± 350 nM in experiment [3] (read-out: BCL-XL Affinity Ki).
`CCN1CCN(c2cc(S(=O)(=O)NC(=O)c3nn(Cc4ccc(Oc5cc(C)c(Cl)c(C)c5)cc4)c4ccc(Cl)cc34)ccc2[N+](=O)[O-])CC1` [CG-1-023]: the Ki in experiment [1] (setting [5]) came to 12400 ± 370 nM; in experiment [2] (read-out: BCL-2 Affinity Ki), 74300 ± 11500 nM.
For `Cc1cc(OCCCn2c(C(=O)O)nc3ccccc32)cc(C)c1Cl` [compound 5, 1-(3-(4-chloro-3,5-dimethylphenoxy)propyl)-1H-benzo[d]imidazole-2-carboxylic acid], the Ki in experiment [1] (setting [8]) and in experiment [1] (read-out: MCL-1 Ki) was over 10000 nM in each case.
With `Cc1cc(Oc2ccc(Cn3nc(C(=O)O)c4cc(Cl)ccc43)cc2)cc(C)c1Cl` [compound 50, 5-chloro-1-(4-(4-chloro-3,5-dimethylphenoxy)benzyl)-1H-indazole-3-carboxylic acid], the Ki in experiment [1] (Table 8, N-1-alkylated isomers, read-out: MCL-1 Ki) was 1580 ± 360 nM.
As to `Cc1cc(OCCCn2nc(C(=O)NS(=O)(=O)c3ccc(NCC4CCCO4)c([N+](=O)[O-])c3)c3cc(Cl)ccc32)cc(C)c1Cl` (stereo not drawn) [BD-3-184], the Ki in experiment [1] (setting [5]) is 690 ± 30 nM; in experiment [2] (setting [6]), 1170 ± 160 nM; in experiment [3] (setting [7]) it was 840 ± 140 nM.
